Data from US20050148553A1, “Use of tigecycline, alone, or in combination with rifampin to treat osteomyelitis and/or septic arthritis” (priority 2003, published 2005).
Where “and” joins values, the source holds several entries; their conditions need not be identical. Equal values may be shown once.

What was measured:
[1] = system: methicillin-resistant Staphylococcus aureus; settings: 14 mg/kg bid; cited from earlier work
[2] = Tigecycline in human serum, tissue and synovial fluid after one intravenous 100 mg dose (LC/MS/MS); assay type: in vivo; set-up: Calculated Concentration, serum: unit not given here
Experimental: The objective of this study was to determine the tissue and corresponding serum concentration of tigecycline at selected time points in lung, colon, gallbladder tissues, bone, and synovial fluid. Samples were taken from subjects scheduled for lung, colon, gallbladder, or bone surgery, or a lumbar puncture who were given a single dose of tigecycline administered intravenously.
Pre-specified tissue/fluid sampling of either lung, colon, gallbladder, bone, and synovial fluid was performed on each subject during surgery at 4 hours, 8 hours, 12 hours, or 24 hours after the start of a single dose of 100 mg tigecycline administered over 30 minutes. Serum was collected from all subjects at hour 0 (before the first dose), approximately 30 minutes (end of infusion), and at the time corresponding to tissue/fluid collections. Tissue and serum concentration was determined according to the method set forth below.
Samples of human serum and tissue from study subjects who had received tigecycline were analyzed according to methods that had been previously validated. Serum samples and synovial fluid (0.2 ml) were mixed with 0.6 ml internal standard in acetonitrile, the supernatant evaporated to dryness and the residue reconstituted in 200 microliters mobile phase. Aliquots (10 microliters) of the reconstituted samples were injected into an LC/MS/MS.
The data was acquired by and analyzed on PE SCIEX “Analyst” version 1.3 software. Linear regression, with 1/x^2 weighting was used to obtain the best fit of the data for the calibration curves. The lower limit of quantitation was 10 ng/ml for serum and synovial fluid samples, 10 ng/g for the colon and gall bladder samples, and 30 ng/g for the bone samples.
Tigecycline was measured in human serum using an LC/MS/MS method. The primary stock solution of tigecycline was prepared at 1 mg/ml by dissolving in methanol. A secondary stock solution was prepared from the primary stock solution by diluting to a concentration of approximately 40,000 ng/ml with acetonitrile. The stock solutions were stored at −20° C. when not in use. A primary internal standard solution of tert-butyl-d9-tigecycline was prepared at a concentration of 1 mg/ml in methanol. A secondary internal standard stock solution was prepared by diluting the primary stock solution to a concentration of 100 micrograms/ml in acetonitrile with 0.1% trifluoroacetate added. The primary and secondary stock solutions were stored at −20° C. The working internal standard was prepared by diluting to volume with acetonitrile/0.1% trifluoroacetate. The working internal standard was stored at 4° C. when not in use. On the day of analysis, the secondary stock solution was brought to room temperature before use to prepared the standard curve working solutions. The standard curve was prepared at approximately 2000, 1600, 1000, 500, 250, 100, 50, 20, and 10 ng/ml by serial dilution in blank human serum.
The extraction procedure was as follows: to 200 microliters of calibrator, quality control or sample was added 600 microliters of internal standard working solution and vortex mixed. The samples were centrifuged for 10 minutes at 13000 rpm to separate the layers and the supernatant was transferred to a culture tube. The samples were evaporated to dryness in a Speed Vac. The residues were reconstituted by sonicating in 200 microliters of mobile phase and 10 microliters was injected in the LC/MS/MS. […]

[3] = Mass balance study, 5 mg/kg intravenous dose; assay type: in vivo, Sprague-Dawley rats; settings: male rats

| Structure (SMILES) | efficacy compared with 40 mg/kg vancomycin [1] | Calculated Concentration, tissue ([2]; Lung, 4 to 24 hours after dose) | concentration at 8 h ([2]; human, synovial fluid, intravenous, 100 mg, synovial fluid, 8 Hour, read-out: Calculated Concentration, synovial fluid) | concentration at 12 h ([2]; human, synovial fluid, intravenous, 100 mg, synovial fluid, 12 Hour, read-out: Calculated Concentration, synovial fluid) | Calculated Concentration, serum ([2]; serum, 8 Hour) | Calculated Concentration, synovial fluid ([2]; synovial fluid, 12 Hour) | recovery of radioactivity [3] |
| --- | --- | --- | --- | --- | --- | --- | --- |
| CN(C)c1cc(NC(=O)CNC(C)(C)C)c(O)c2c1C[C@H]1C[C@H]3[C@H](N(C)C)C(O)=C(C(N)=O)C(=O)[C@@]3(O)C(O)=C1C2=O [Tigecycline] | more effective | 653 n2/2 | 70.9 ng/mL | 111 ng/mL | 198 {n&mll and 186 {n&mll and 133 {n&mll and 206 {n&mll | 65.0 ng/mL and 65.7 ng/mL and 62.8 ng/mL | – |
| CN(C)c1cc(NC(=O)CNC(C)(C)C)c(O)c2c1C[C@H]1C[C@H]3[C@H](N(C)C)C(O)=C(C(N)=O)C(=O)[C@@]3(O)C(O)=C1C2=O [[^14C]-Tigecycline] | – | – | – | – | – | – | 89.4±2.50% |
